* marks the point of attachment. NOTA = O=C(O)CN1CCN(CC(=O)O)CCN(CC(=O)*)CC1
Target: T1, granzyme B (Mus musculus, UniProt P04187)
T1 construct: from tissue; host or cells: intracranial GSC005-luc tumour in C57BL/6 mice; granzyme B comes from the host's cytotoxic immune cells
T1 sequence (P04187 21-247): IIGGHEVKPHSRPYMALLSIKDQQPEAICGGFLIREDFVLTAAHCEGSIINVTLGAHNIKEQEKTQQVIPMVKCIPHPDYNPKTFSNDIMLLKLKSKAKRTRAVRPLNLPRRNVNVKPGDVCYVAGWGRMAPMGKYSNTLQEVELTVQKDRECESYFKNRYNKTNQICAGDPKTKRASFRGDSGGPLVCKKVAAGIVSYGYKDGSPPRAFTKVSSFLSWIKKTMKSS
Type: in vivo, mouse (C57BL/6, orthotopic GSC005-luc GBM)
Excerpt: Dynamic [^64Cu]-NOTA-GZP PET was collected using a preclinical small animal PET/CT imaging system (GNEXT, Sofie Bioscience, Culver City, CA) seven days from the start of therapy. Scan consisted of an 80-min list-mode acquisition, with 100 ± 10 μCi (3.7 ± 0.37 MBq) of [^64Cu]-NOTA-GZP being administered via tail-vein catheter followed by a saline flush. Subsequently, a 5-min computed tomography (CT, voltage, 80 kVp; current, 150 μA) scan was collected for anatomical reference. A subset of mice (N = 5 treatment, 3 controls) was humanely euthanized, and brains were excised for a 1 h ex vivo PET/CT brain scan and, upon completion, placed in formalin and fixed overnight. Remaining mice were monitored longitudinally for survival.
Dynamic PET data was reconstructed using a 3D ordered-subset expectation maximization algorithm (24 subsets, 3 iterations) with a reconstructed voxel size of 0.5 × 0.5 × 0.5 mm^3 based on a 12 × 10 s, 6 × 30 s, 5 × 60 s, 10 × 300 s, 1 × 1200 s framing sequence (Figure 2A). PET sequences were rigidly registered to the reference anatomical CT scan. Voxel-wise conversion to standardized uptake value (SUV) was then performed based on the following equation:
GSC005-luc orthotopic mouse models were developed and treated with single dose M002 followed by a dose of anti-PD1 on days 1, 4 and 7 (N = 22), or saline at similar timepoints (N = 9). 80-min dynamic [^64Cu]-NOTA-GZP PET/CT scans were performed at day 4 and 7 following treatment, with tumor and contralateral brain time activity curves being fitted to a 2TCM as selected based on prior comparative assessment. Metrics for average SUV, k1, k2, k3 and k4 were quantified on the tumor region with additional normalization to contralateral healthy brain (TBR).
In addition, anatomical MRI scans were collected prior to the start of treatment (D-1), and at days 3, 6 and 13 following treatment for anatomical PET/CT reference and monitoring of tumor volumes. Longitudinal monitoring was performed via BLI every three days. […] Response was defined based on a threshold of less than 20% increase in BLI signal one month following initial immunotherapy administration as previously reported.

{NOTA}-AGGIEFD-aldehyde [[^64Cu]-NOTA-GZP, NOTA-Ala-Gly-Gly-Ile-Glu-Phe-Asp-CHO (NOTA-GZP) radiolabeled with ^64Cu; granzyme B specific PET imaging agent]
k3 (tracer binding rate), contralateral brain (2TCM, combination immunotherapy-treated mice, four days following therapy, contralateral brain): 0.04 ± 0.05 min⁻¹ | k3 (tracer binding rate), tumor (2TCM, combination immunotherapy-treated mice, four days following therapy, tumor): 0.13 ± 0.8 min⁻¹ | SUV TBR (mouse, in vivo): 2.50 ± 1.68 | k1 TBR (mouse, in vivo): 1.18 ± 0.75

Reference: paper PMC12775653, “Quantitative dynamic granzyme B PET imaging to characterize novel combination immunotherapy response in preclinical glioblastoma models” (Theranostics, 2026)
